Reference: patent US20260146035A1, “FUSED BICYCLIC COMPOUNDS AND THEIR USE AS MER AND AXL INHIBITORS” (DONG-A ST CO., LTD., priority 2022, published 2026)

Tests used:
human MER (528-end) = target: T1, human MER (528-end) (Homo sapiens, UniProt Q12866); experiment: HTRF kinase activity biochemical assay, MER; conditions: 10 μM ATP, 30 minutes pre-incubation; read-out: HTRF MERTK IC50
T1 construct: human MER (528-end); purchased Camnabio, Japan
T1 sequence (Q12866 528-999 limits assumed): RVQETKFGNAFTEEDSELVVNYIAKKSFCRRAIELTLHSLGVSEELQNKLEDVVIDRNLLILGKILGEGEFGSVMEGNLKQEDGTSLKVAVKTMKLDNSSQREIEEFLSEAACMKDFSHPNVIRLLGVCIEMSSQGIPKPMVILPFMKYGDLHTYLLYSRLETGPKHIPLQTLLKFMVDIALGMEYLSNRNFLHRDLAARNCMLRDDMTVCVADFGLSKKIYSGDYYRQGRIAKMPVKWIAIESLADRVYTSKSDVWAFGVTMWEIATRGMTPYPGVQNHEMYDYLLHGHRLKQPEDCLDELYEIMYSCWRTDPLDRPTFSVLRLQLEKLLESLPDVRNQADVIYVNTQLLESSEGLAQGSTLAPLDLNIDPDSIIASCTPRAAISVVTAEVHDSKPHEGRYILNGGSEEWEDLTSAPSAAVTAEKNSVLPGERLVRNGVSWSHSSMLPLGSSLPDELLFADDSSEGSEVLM
Experimental: (§1) For the SAR (structure-activity relationship) and compound screening, HTRF (Homogeneous Time Resolved Fluorescence) kinase activity assay was employed for all MER, AXL and TYRO3 kinases using Cisbio HTRF® KinEASE™-TK kit (Cisbio, USA). The kit included biotin-labeled TK substrate, streptavidin-XL665, Eu3+-cryptate-labeled TK antibody and HTRF® Detection buffer. There are two main steps in the kinase assay: kinase reaction and detection of phosphorylated substrate. The reaction was carried out in white low volume 384-well plate (Corning, USA) with 25 nL compound in dimethyl sulfoxide in each well. […] After 1 hour incubation at room temperature, the fluorescence intensity was measured with Envision[…] plate reader (PerkinElmer, USA). Upon excitation at 340 nm by UV, the energy from Eu3+ donor of the antibody is transferred to the FRET acceptor XL665, and […] emits light at 665 nm.

human AXL (473-end) = target: T2, human AXL (473-end) (Homo sapiens, UniProt P30530); experiment: HTRF kinase activity biochemical assay, AXL; conditions: 10 μM ATP, 30 minutes pre-incubation
T2 construct: human AXL (473-end); purchased SignalChem, Canada
T2 sequence (P30530 473-894 limits assumed): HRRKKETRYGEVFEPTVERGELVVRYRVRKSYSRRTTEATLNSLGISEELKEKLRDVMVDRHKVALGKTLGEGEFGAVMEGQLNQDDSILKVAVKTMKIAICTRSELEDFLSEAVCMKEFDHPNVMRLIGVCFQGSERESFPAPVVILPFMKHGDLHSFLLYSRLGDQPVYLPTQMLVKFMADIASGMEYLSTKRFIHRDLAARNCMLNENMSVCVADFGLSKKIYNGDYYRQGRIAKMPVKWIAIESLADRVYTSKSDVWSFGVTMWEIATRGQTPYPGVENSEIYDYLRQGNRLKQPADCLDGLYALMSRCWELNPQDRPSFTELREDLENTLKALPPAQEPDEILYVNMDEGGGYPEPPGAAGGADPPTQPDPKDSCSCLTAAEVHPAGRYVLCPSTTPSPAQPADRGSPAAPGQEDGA
Experimental: as §1

human TYRO3 (455-end) = target: T3, human TYRO3 (455-end) (Homo sapiens, UniProt Q06418); experiment: HTRF kinase activity biochemical assay, TYRO3; conditions: 10 μM ATP, 30 minutes pre-incubation; read-out: HTRF TYRO IC50
T3 construct: TYRO3 (455-end); purchased SignalChem, Canada
T3 sequence (Q06418 455-890 limits assumed): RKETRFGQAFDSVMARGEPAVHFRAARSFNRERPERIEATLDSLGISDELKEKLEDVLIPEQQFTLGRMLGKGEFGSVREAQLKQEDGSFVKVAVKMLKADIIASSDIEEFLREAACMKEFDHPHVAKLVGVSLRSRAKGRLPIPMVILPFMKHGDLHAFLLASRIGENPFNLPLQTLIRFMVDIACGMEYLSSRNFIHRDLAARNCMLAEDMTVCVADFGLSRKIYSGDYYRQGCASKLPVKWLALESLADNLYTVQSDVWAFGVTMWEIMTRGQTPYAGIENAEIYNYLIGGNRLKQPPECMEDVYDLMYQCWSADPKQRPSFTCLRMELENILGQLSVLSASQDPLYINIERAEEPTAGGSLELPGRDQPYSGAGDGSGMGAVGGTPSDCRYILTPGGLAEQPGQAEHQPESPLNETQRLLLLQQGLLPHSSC
Experimental: as §1

| IC50 (human MER (528-end)) | IC50 (human AXL (473-end)) | IC50 (human TYRO3 (455-end)) | SMILES |
| --- | --- | --- | --- |
|  | < 0.01 µM | 0.01 to 0.1 µM | Nc1ncc(-c2cccnc2F)cc1C(=O)N[C@H]1CCC[C@@H]1OCc1ccc(-c2ccc3c(c2)CCC[C@@H]3N2CCN(C[C@H](O)CO)CC2)cc1 [Example 173, 6-amino-N-[(1S,2S)-2-({4-[(5S)-5-{4-[(2S)-2,3-dihydroxypropyl]piperazin-1-yl}-5,6,7,8-tetrahydronaphthalen-2-yl]phenyl}methoxy)cyclopentyl]-2′-fluoro[3,3′-bipyridine]-5-carboxamide] |
|  | < 0.01 µM | 0.1 to 1 µM | Nc1ncc(-c2cccnc2F)cc1C(=O)N[C@H]1CCC[C@@H]1OCc1ccc(-c2ccc3c(c2)CCC3N2CCN(CCO)CC2)cc1 (stereo partly drawn) [Example 82, 6-amino-2′-fluoro-N-{(1S,2S)-2-[(4-{1-[4-(2-hydroxyethyl)piperazin-1-yl]-2,3-dihydro-1H-inden-5-yl}phenyl)methoxy]cyclopentyl}[3,3′-bipyridine]-5-carboxamide] |
|  | < 0.01 µM | 0.1 to 1 µM | Nc1ncc(-c2cccnc2F)cc1C(=O)N[C@H]1CCC[C@@H]1OCc1ccc(-c2ccc3c(c2)CC[C@@H]3N2CCN(CC(O)CO)CC2)cc1 (stereo partly drawn) [Example 102, 6-amino-N-{(1S,2S)-2-[(4-{(1S)-1-[4-(2,3-dihydroxypropyl)piperazin-1-yl]-2,3-dihydro-1H-inden-5-yl}phenyl)methoxy]cyclopentyl}-2′-fluoro[3,3′-bipyridine]-5-carboxamide] |
|  | < 0.01 µM | 0.1 to 1 µM | Nc1ncc(-c2cccnc2F)cc1C(=O)N[C@H]1CCC[C@@H]1OCc1ccc(-c2ccc3c(c2)CC[C@@H]3N2CCN(C[C@H](O)CO)CC2)cc1 [Example 166, 6-amino-N-[(1S,2S)-2-({4-[(1S)-1-{4-[(2S)-2,3-dihydroxypropyl]piperazin-1-yl}-2,3-dihydro-1H-inden-5-yl]phenyl}methoxy)cyclopentyl]-2′-fluoro[3,3′-bipyridine]-5-carboxamide] |
|  | < 0.01 µM | 0.1 to 1 µM | Nc1ncc(-c2cccnc2F)cc1C(=O)N[C@H]1CCC[C@@H]1OCc1ccc(-c2ccc3c(c2)CC[C@@H]3N2CCN(C[C@@H](O)CO)CC2)cc1 [Example 167, 6-amino-N-[(1S,2S)-2-({4-[(1S)-1-{4-[(2R)-2,3-dihydroxypropyl]piperazin-1-yl}-2,3-dihydro-1H-inden-5-yl]phenyl}methoxy)cyclopentyl]-2′-fluoro[3,3′-bipyridine]-5-carboxamide] |

The next lines start with the compound.

| SMILES | IC50 (human MER (528-end)) | IC50 (human AXL (473-end)) | IC50 (human TYRO3 (455-end)) |
| --- | --- | --- | --- |
| Cn1cc(-c2cnc(N)c(C(=O)N[C@H]3CCC[C@@H]3OCc3ccc(-c4ccc5c(ccn5C5CCN(CCO)CC5)c4)cc3)c2)cn1 [Example 7, 2-amino-N-{(1S,2S)-2-[(4-{1-[1-(2-hydroxyethyl)piperidin-4-yl]-1H-indol-5-yl}phenyl)methoxy]cyclopentyl}-5-(1-methyl-1H-pyrazol-4-yl)pyridine-3-carboxamide] | < 0.01 µM | < 0.01 µM | 0.1 to 1 µM |
| Cn1ccc(-c2cnc(N)c(C(=O)N[C@H]3CCC[C@@H]3OCc3ccc(-c4ccc5c(c4)C(C)(C)CN5C4CCN(CCO)CC4)cc3)c2)cc1=O [Example 30, 6-amino-N-{(1S,2S)-2-[(4-{1-[1-(2-hydroxyethyl)piperidin-4-yl]-3,3-dimethyl-2,3-dihydro-1H-indol-5-yl}phenyl)methoxy]cyclopentyl}-1′-methyl-2′-oxo-1′,2′-dihydro[3,4′-bipyridine]-5-carboxamide] | < 0.01 µM | < 0.01 µM | 0.01 to 0.1 µM |
| Nc1ncc(C(F)(F)F)cc1C(=O)N[C@H]1CCC[C@@H]1OCc1ccc(-c2ccc3c(c2)CC[C@@H]3N2CCN(CCO)CC2)cc1 [Example 131, 2-amino-N-{(1S,2S)-2-[(4-{(1S)-1-[4-(2-hydroxyethyl)piperazin-1-yl]-2,3-dihydro-1H-inden-5-yl}phenyl)methoxy]cyclopentyl}-5-(trifluoromethyl)pyridine-3-carboxamide] | < 0.01 µM | < 0.01 µM | 0.1 to 1 µM |
| Nc1ncc(-c2ccccn2)cc1C(=O)N[C@H]1CCC[C@@H]1OCc1ccc(-c2ccc3c(c2)CC[C@@H]3N2CCN(CCO)CC2)cc1 [Example 177, 6′-amino-N-{(1S,2S)-2-[(4-{(1S)-1-[4-(2-hydroxyethyl)piperazin-1-yl]-2,3-dihydro-1H-inden-5-yl}phenyl)methoxy]cyclopentyl}[2,3′-bipyridine]-5′-carboxamide] | < 0.01 µM | < 0.01 µM | 0.01 to 0.1 µM |
| Cn1cc(-c2cnc(N)c(C(=O)N[C@H]3CCC[C@@H]3OCc3ccc(-c4ccc5c(c4)C4(CCOC4)CN5C4CCN(CCO)CC4)cc3)c2)cn1 (stereo partly drawn) [Example 43, 2-amino-N-{(1S,2S)-2-[(4-{1-[1-(2-hydroxyethyl)piperidin-4-yl]-1,2-dihydrospiro[indole-3,3′-oxolan]-5-yl}phenyl)methoxy]cyclopentyl}-5-(1-methyl-1H-pyrazol-4-yl)pyridine-3-carboxamide] | < 0.01 µM | 0.1 to 1 µM | 0.1 to 1 µM |
| Cn1cc(-c2cnc(N)c(C(=O)N[C@H]3CCC[C@@H]3OCc3ccc(-c4ccc5c(c4)C[C@H](F)[C@@H]5N4CCN(CCO)CC4)cc3)c2)ccc1=O (relative stereo) [Example 90, 6-amino-N-{(1S,2S)-2-[(4-{(1R*,2S*)-2-fluoro-1-[4-(2-hydroxyethyl)piperazin-1-yl]-2,3-dihydro-1H-inden-5-yl}phenyl)methoxy]cyclopentyl}-1′-methyl-6′-oxo-1′,6′-dihydro[3,3′-bipyridine]-5-carboxamide] | < 0.01 µM | < 0.01 µM | > 1 µM |
| Cn1cc(-c2cnc(N)c(C(=O)N[C@H]3CCC[C@@H]3OCc3ccc(-c4ccc5c(ccn5CCO)c4)cc3)c2)cn1 [Example 57, 2-amino-N-[(1S,2S)-2-({4-[1-(2-hydroxyethyl)-1H-indol-5-yl]phenyl}methoxy)cyclopentyl]-5-(1-methyl-1H-pyrazol-4-yl)pyridine-3-carboxamide] | < 0.01 µM | 0.01 to 0.1 µM | > 1 µM |
| Cn1cc(-c2cnc(N)c(C(=O)N[C@H]3CCC[C@@H]3OCc3ccc(-c4ccc5c(ccn5C(F)F)c4)cc3)c2)cn1 [Example 64, 2-amino-N-[(1S,2S)-2-({4-[1-(difluoromethyl)-1H-indol-5-yl]phenyl}methoxy)cyclopentyl]-5-(1-methyl-1H-pyrazol-4-yl)pyridine-3-carboxamide] | < 0.01 µM | 0.01 to 0.1 µM | > 1 µM |
| Nc1ncc(-c2ccc(F)nc2)cc1C(=O)N[C@H]1CCC[C@@H]1OCc1ccc(-c2ccc3c(c2)CCC3N2CCN(CC(O)CO)CC2)cc1 (stereo partly drawn) [Example 80, 6-amino-N-{(1S,2S)-2-[(4-{1-[4-(2,3-dihydroxypropyl)piperazin-1-yl]-2,3-dihydro-1H-inden-5-yl}phenyl)methoxy]cyclopentyl}-6′-fluoro[3,3′-bipyridine]-5-carboxamide] |  | < 0.01 µM | 0.1 to 1 µM |
| Nc1ncc(-c2ccc(F)nc2)cc1C(=O)N[C@H]1CCC[C@@H]1OCc1ccc(-c2ccc3c(c2)CC[C@@H]3N2CCN(CC(O)CO)CC2)cc1 (stereo partly drawn) [Example 100, 6-amino-N-{(1S,2S)-2-[(4-{(1S)-1-[4-(2,3-dihydroxypropyl)piperazin-1-yl]-2,3-dihydro-1H-inden-5-yl}phenyl)methoxy]cyclopentyl}-6′-fluoro[3,3′-bipyridine]-5-carboxamide] |  | < 0.01 µM | 0.1 to 1 µM |
